“And” between values parts separate entries of the source, which are not always exact repeats. Equal entries are not always repeated. Where two headings read alike, the source gives them in different places.
How the values were obtained:
[1] = tested on: C. marina ATCC 25374 biofilm; assay: MBEC biofilm eradication assay, C. marina; format: cell-based
C. marina ATCC 25374 [2] = assay: Minimum bactericidal concentration, C. marina; format: cell-based
C. marina ATCC 25374 [3] = assay: MIC broth microdilution, C. marina; format: cell-based
MRSA ATCC 33591 = assay: MIC broth microdilution, MRSA; format: cell-based, S. aureus Methicillin-Resistant
[4] = tested on: Heterochlorella luteoviridis cf. (SAG 2203); assay: Algae growth inhibition; format: cell-based; conditions: 1% concentration, 14 days, absorbance 750 nm
Protocol: The molecules (SDBS, SDS, SEHS, and DBSA) were added to the growth culture medium of algae Heterochlorella luteoviridis cf. (SAG 2203.) Algae was grown in 50 ml tubes at 28 °C for 14 days. Absorbance (optical density) was measured at 750 nm in a spectrophotometer and used to determine concentration to inhibit the growth of algae.

L. fermentum (ATCC 9338) = assay: MIC broth microdilution, L. fermentum; format: cell-based, Lactobacillus fermentum
E. coli ATCC 11775 = assay: MIC broth microdilution, E. coli; format: cell-based
A. niger ATCC 16888 = assay: MIC broth microdilution, A. niger; format: cell-based
S. aureus ATCC 12600 = assay: MIC broth microdilution, S. aureus; format: cell-based
P. aeruginosa NR-31041 = assay: MIC broth microdilution, P. aeruginosa; format: cell-based, Pseudomonas aeruginosa
[5] = 24- and 48-hour biofilm, 30 min exposure
[6] = C. marina ATCC 25374, materials in water

In the case of `CCCCOP(=O)(O)OCCCC` [DBP, dibutyl phosphate], the “% Reduction Compared to Control” value [1] is reported as 99.9999% and 99.999%, the “Log Reduction” value [1] is reported as 5.5 and the “MBEC ASTM E2799-12 Method (% v/v)” value [1] is reported as 0.5 % v/v. The “% Reduction Compared to Control” value (C. marina ATCC 25374 [2]) was 99.9999%, the CFU/ml (C. marina ATCC 25374 [2]) was <1E+02^1 CFU/ml and the “Minimum Bactericidal Concentration (% v/v) CLSI M26-A Method” value (C. marina ATCC 25374 [2]) was 0.5000 % v/v. The “Growth of C. marina (in words)” value (C. marina ATCC 25374 [3]) was “inhibited growth” and the “Minimum Inhibitory Concentration (% v/v) M07-09 Method” value (C. marina ATCC 25374 [3]) was 0.1250 % v/v.

For `CCCCCCCCCCCCc1ccc(S(=O)(=O)O)cc1` [DBSA, 4-Dodecylbenzenesulfonic acid], the “Minimum Inhibitory Concentration (MIC) M07-09 Method, MRSA” value (MRSA ATCC 33591) was 0.003 % v/v, the “MBEC ASTM E2799-12 Method (% v/v)” value [1, 5] was >0.5 % v/v and the “% Biofilm Removal Efficacy” value ([1]; 48-hour biofilm, 0.0078 % v/v) was 73.64%. For the same compound, the “Log Reduction” value ([1]; 48-hour biofilm, 0.0078 % v/v) was 0.58, the “% Biofilm Removal Efficacy” value ([1]; 48-hour biofilm, 0.0156 % v/v) was 86.36% and the “Log Reduction” value ([1]; 48-hour biofilm, 0.0156 % v/v) was 0.87. The “% Biofilm Removal Efficacy” value ([1]; 48-hour biofilm, 0.0313 % v/v) was 96.27%, the “Log Reduction” value ([1]; 48-hour biofilm, 0.0313 % v/v) was 1.43 and the “% Biofilm Removal Efficacy” value ([1]; 48-hour biofilm, 0.0630 % v/v) was 98.27%. For the same compound, the “Log Reduction” value ([1]; 48-hour biofilm, 0.0630 % v/v) was 1.76, the “Removal of existing 48-hour biofilm (up to)” value ([1]; 48-hour biofilm, best of the tested concentrations) was ≤ 99% and the “% Reduction Compared to Control” value (C. marina ATCC 25374 [2]; C. marina ATCC 25374, killing) was 99.9999%. The “Minimum Bactericidal Concentration (% v/v) CLSI M26-A Method” value (C. marina ATCC 25374 [2]; [6]) was 0.0078 % v/v, the CFU/ml (C. marina ATCC 25374 [2]; C. marina ATCC 25374, detection limit <1E+02) was <1E+02^1 CFU/ml and the “Growth of C. marina (in words)” value (C. marina ATCC 25374 [3]; C. marina) was “inhibited growth”. For the same compound, the “Minimum Inhibitory Concentration (% v/v) M07-09 Method” value (C. marina ATCC 25374 [3]; [6]) was < 0.0039 % v/v, the Algae growth [4] was “inhibited” and the “Minimum Inhibitory Concentration (MIC) (% v/v) M07-09 Method, L. fermentum” value (L. fermentum (ATCC 9338)) was 0.0150 % v/v. The “Minimum Inhibitory Concentration (MIC) M07-09 Method, EC” value (E. coli ATCC 11775; E. coli ATCC 11775) was 0.100 % v/v, the “Minimum Inhibitory Concentration (MIC) M07-09 Method, AN” value (A. niger ATCC 16888; A. niger ATCC 16888) was 0.003 % v/v and the “Minimum Inhibitory Concentration (MIC) M07-09 Method, SA” value (S. aureus ATCC 12600; S. aureus ATCC 12600) was 0.003 % v/v. For the same compound, the “Minimum Inhibitory Concentration (MIC) M07-09 Method, PA” value (from here on “Minimum Inhibitory Concentration … PA”) (P. aeruginosa NR-31041; P. aeruginosa NR-31041) was 0.500 % v/v.

For `CCCCCCCCCCCCOS(=O)(=O)[O-].[Na+]` [SDS, sodium dodecyl sulfate], the “Minimum Inhibitory Concentration (MIC) M07-09 Method, MRSA” value (MRSA ATCC 33591) was 0.028 % v/v, the Algae growth [4] was “inhibited” and the “Minimum Inhibitory Concentration (MIC) M07-09 Method, EC” value (E. coli ATCC 11775) was 0.100 % v/v. The “Minimum Inhibitory Concentration (MIC) M07-09 Method, AN” value (A. niger ATCC 16888) was 0.030 % v/v, the “Minimum Inhibitory Concentration (MIC) M07-09 Method, SA” value (S. aureus ATCC 12600) was 0.028 % v/v and the “Minimum Inhibitory Concentration … PA” value (P. aeruginosa NR-31041) was 0.500 % v/v.

With `CCCCC(CC)COS(=O)(=O)[O-].[Na+]` (stereo not drawn) [SEHS, sodium 2-ethylhexylsulfate] the “MBEC ASTM E2799-12 Method (% v/v)” value [1, 5] was >0.5 % v/v, the “% Reduction Compared to Control” value (C. marina ATCC 25374 [2]) was 99.9999% and the CFU/ml (C. marina ATCC 25374 [2]) was <1E+02^1 CFU/ml. For the same compound, the “Minimum Bactericidal Concentration (% v/v) CLSI M26-A Method” value (C. marina ATCC 25374 [2]) was 0.0630 % v/v, the “Growth of C. marina (in words)” value (C. marina ATCC 25374 [3]) was “inhibited growth” and the “Minimum Inhibitory Concentration (% v/v) M07-09 Method” value (C. marina ATCC 25374 [3]) was 0.0313 % v/v. For the same compound, the Algae growth [4] was “inhibited”, the “Minimum Inhibitory Concentration (MIC) M07-09 Method, SA” value (S. aureus ATCC 12600) was 0.280 % v/v and the “Minimum Inhibitory Concentration … PA” value (P. aeruginosa NR-31041) was 0.500 % v/v.

Reference: US20220322671A1, “METHODS TO REDUCE CONTAMINATION, BIOFILM AND FOULING FROM WATER SYSTEMS, SURFACES, AND PRODUCTS” (Aequor, Inc., priority 2019, published 2022)
